Measurements published in US20080051456A1, “Glycine Reuptake Inhibitors for Treatment of Drug Dependence” (priority 2005, published 2008).
Where “and” joins values, the source holds several entries; their conditions need not be identical. Equal values may be shown once.

Legend:
GlyT2 protein = biological target: T1, GlyT2 protein (Homo sapiens, UniProt Q9Y345); details: relative to main action on GlyT1; cited from earlier work
T1 sequence (Q9Y345 1-797): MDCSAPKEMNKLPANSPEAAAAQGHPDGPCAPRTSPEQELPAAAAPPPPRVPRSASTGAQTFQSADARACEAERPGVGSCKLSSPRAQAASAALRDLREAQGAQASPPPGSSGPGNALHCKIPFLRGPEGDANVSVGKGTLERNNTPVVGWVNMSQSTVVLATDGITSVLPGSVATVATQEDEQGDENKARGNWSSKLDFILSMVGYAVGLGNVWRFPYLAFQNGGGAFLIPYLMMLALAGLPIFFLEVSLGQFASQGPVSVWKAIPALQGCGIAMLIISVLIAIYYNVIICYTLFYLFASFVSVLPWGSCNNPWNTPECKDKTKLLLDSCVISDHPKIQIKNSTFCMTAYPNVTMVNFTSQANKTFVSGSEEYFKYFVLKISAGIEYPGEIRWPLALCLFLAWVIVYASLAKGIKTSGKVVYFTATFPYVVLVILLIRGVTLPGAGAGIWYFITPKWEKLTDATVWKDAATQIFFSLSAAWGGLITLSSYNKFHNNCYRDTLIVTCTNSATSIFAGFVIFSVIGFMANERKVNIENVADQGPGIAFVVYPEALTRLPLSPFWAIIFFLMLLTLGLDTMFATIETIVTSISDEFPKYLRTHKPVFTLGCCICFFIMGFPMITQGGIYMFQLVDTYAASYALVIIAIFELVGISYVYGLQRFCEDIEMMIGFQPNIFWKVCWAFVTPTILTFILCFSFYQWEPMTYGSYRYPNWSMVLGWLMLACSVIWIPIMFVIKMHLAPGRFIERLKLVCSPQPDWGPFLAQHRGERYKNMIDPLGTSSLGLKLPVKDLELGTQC

[1] = system: striatal extracellular glycine levels; details: 6 mg/kg i.p., rat approx. 500 g; stated as expected; cited from earlier work
[2] = oral administration
[3] = system: ethanol high preferring male Wistar rats; assay: Limited access free choice ethanol (6% v/v) / water drinking in ethanol high preferring rats
Method: Male adult Wistar rats weighing 250-300 g (approx. 50 days old) were supplied by Beekay (Stockholm, Sweden). The animals were housed in groups of four at a constant cage temperature (25° C.) and humidity (65° C.). The animals were allowed to adapt for one week to the novel environment before any experiment (Screening for ethanol preference) was performed. They were kept under regular light-dark conditions (light on at 07:00 a.m. and off at 19:00 p.m.) with free access to standard rat feed (Beekay feed) and tap water.
Rats had continuous access to a bottle of ethanol solution in addition to the water bottle. […] The animals were subsequently housed individually in plastic cages. They had continuous access to two bottles containing either tap water or 6% ethanol solution. […] Water and ethanol intake were measured over a 6-7-week period. The amount (g) of ethanol solution consumed, in percent of total fluid intake (g), was used as an index of ethanol preference. Rats were classified as low-(<20% ethanol), medium (20%-60% ethanol), or high-(>60% ethanol) preferring based on their ethanol preference.
Ethanol (AB Svensk sprit) was dissolved (2-4-6% v/v) with regular tap water and presented in regular plastic 300 ml bottles. […] NaCl (0.9%) was used as vehicle.
To adapt to the experimental procedure, approx. 80 days old ethanol high preferring male Wistar rats were limited to drink both ethanol (6% v/v) and water for only three hours/day during one week, so called limited access (limited access) drinking. Thereafter, daily MTHMPNMglycine or vehicle administration started. MTHMPNMglycine or vehicle was injected i.p. and the rats were allowed to rest for approx. 40 min after which they were presented a choice between ethanol and water and allowed to drink for 3 hours. In the first experiment rats were challenged with MTHMPNMglycine (6 mg/kg) or vehicle for two weeks and alcohol and water intake were monitored. The experiment was preceded and ended by a limited access period.
Again the rats were treated with MTHMPNMglycine (6 mg/kg) or vehicle for 13 days. In addition, the rats were thereafter exposed to a two-week period of alcohol deprivation (limited access), during which they were allowed to drink only water 3 hours per day. After the limited access period the rats were again challenged with MTHMPNMglycine or vehicle and re-exposed to ethanol for an additional time-period of 13 days. […] The rats were presented to the water and ethanol (6% v/v) bottles approx. 40 minutes after drug administration.
The ethanol and water consumption data were statistically analysed using Analysis of variance (ANOVA) for repeated measures followed by post hoc analysis by means of Fisher's Protected Least Significant Difference (PLSD) test. Paired t-test was used for dependent comparisons between values obtained at different time-points. All values are expressed as means ±SEM. A probability value (P) less than 0.05 was considered statistically significant.
A new set of male ethanol high-preferring Wistar rats were injected i.p. with either MTHMPNMglycine or vehicle. Approx. 40 minutes after injection all rats were exposed to a free choice between ethanol (6% v/v) and water for 3 hours. First all rats received MTHMPNMglycine (6 mg/kg) or vehicle daily during 13 days.

[4] = 10 mg/kg, dose-finding pilot experiments

CCCOc1ccc(C2=CC3(CCN(CC(=O)O)CC3)Oc3ccccc32)cc1F [FPPSBPAA, 4-[3-fluoro-4-propoxyphenyl]-spiro[2H-1-benzopyran-2,4′-piperidine]-1′-acetic acid]
action on the GlyT2 protein (GlyT2 protein): negligible action

COc1ccc2c(c1)CC[C@H](CN(C)CC(=O)O)[C@@H]2c1ccccc1 [MTHMPNMglycine]
action on the GlyT2 protein (GlyT2 protein): negligible action | increase of striatal extracellular glycine levels [1]: 50-80% and 50-70% | duration of behavioral changes [4]: 10 to 15 min | incidence of behavioral changes [4]: one out of ten | gross behavior at the doses used in the study (1.5-6 mg/kg i.p., rats): behaviorally unaffected | mean body weight vs vehicle (during the limited access/experimental time): significant lowered | oral dose that induced visible behavioral changes [2]: ≥ 13.5 mg/kg | total fluid intake vs vehicle ([3]; Experiment 1, 6 mg/kg i.p. daily, day 4-14, group effect p=0.0004, groups also differed on day 1-3): significantly reduced | ethanol intake vs vehicle ([3]; Experiment 1, 6 mg/kg i.p. daily, day 4-14, group effect p=0.0125): significantly reduced | ethanol preference vs vehicle ([3]; Experiment 1, 6 mg/kg i.p. daily, day 4-14, group effect p=0.1899): no group effect | water intake vs vehicle ([3]; Experiment 1, 6 mg/kg i.p. daily, day 4-14, group effect p=0.8713): no difference | ethanol preference, difference vs vehicle ([3]; Experiment 2, 1.5 mg/kg i.p., day 28-29, group effect p=0.2117): totally abolished | ethanol intake, difference vs vehicle ([3]; Experiment 2, 1.5 mg/kg i.p., day 28-29, group effect p=0.8614): totally abolished | ethanol preference vs vehicle ([3]; Experiment 2, 3 mg/kg i.p., day 24-27, group effect p=0.1555): appeared to decrease the difference between the groups | ethanol intake vs vehicle ([3]; Experiment 2, 3 mg/kg i.p., day 24-27, group effect p=0.2973): difference between the groups was reduced | treatment time after which the ethanol intake reducing effect was most pronounced ([3]; Experiment 2, 6 mg/kg i.p.): 4 to 6 days | water intake vs vehicle ([3]; Experiment 2, 6 mg/kg i.p., after alcohol deprivation, day 17-23, group effect p=0.0659): tendency to increase their water intake | ethanol preference vs vehicle ([3]; Experiment 2, 6 mg/kg i.p., after approx. one week, day 11-16, group effect p<0.0001): significant decrease | total fluid intake vs vehicle ([3]; Experiment 2, 6 mg/kg i.p., after four days of treatment, day 8-16, group effect p<0.0001): significantly lowered | ethanol intake vs vehicle ([3]; Experiment 2, 6 mg/kg i.p., after one week of treatment, day 11-17, group effect p=0.0001): even more pronounced | ethanol intake vs vehicle ([3]; Experiment 2, 6 mg/kg i.p., after two weeks of alcohol deprivation, day 17-23, group effect p=0.0348): remained significantly reduced | ethanol preference vs vehicle ([3]; Experiment 2, 6 mg/kg i.p., after two weeks of alcohol deprivation, day 17-23, group effect p=0.0572): remained reduced, although not significantly | total fluid intake after vs before reintroducing ethanol choice (within group) ([3]; Experiment 2, 6 mg/kg i.p., day 14 vs. day 19, paired t-test p<0.0001): significantly increased | ethanol intake after vs before alcohol deprivation period (within group) ([3]; Experiment 2, 6 mg/kg i.p., day 14 vs. day 19, paired t-test p=0.0135): significantly increased | water intake after vs before alcohol deprivation period (within group) ([3]; Experiment 2, 6 mg/kg i.p., day 14 vs. day 19, paired t-test p=0.0188): significantly increased their water intake | ethanol intake vs vehicle ([3]; Experiment 2, 6 mg/kg i.p., first 6 days of treatment, day 4-10, group effect p=0.0008): significantly reduced | ethanol preference vs vehicle ([3]; Experiment 2, 6 mg/kg i.p., first 6 days, day 4-10, group effect p=0.1300): no significant difference | water intake vs vehicle ([3]; Experiment 2, 6 mg/kg i.p., first part of the experiment (before alcohol deprivation)): not significantly different | total fluid intake vs vehicle ([3]; Experiment 2, after the alcohol deprivation (limited access) period): no difference
